Among the data in PubChem BioAssay (NCI) are TGI and GI50 values, retold here.

Each structure is given as a SMILES string.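 Grown in 96-well plates, cells were treated for 48 hours with each compound at five concentrations. Insufficient inhibition: endpoint recorded as highest concentration tested. GI50 is the concentration that inhibits growth by half. TGI marks complete inhibition of growth.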

The first assay deals with A549 NSCLC. Briefly: NCI tumour cell line growth inhibition, 48 h.
Compound `COc1ccc(C2CC(c3c(O)ccc4ccccc34)=NN2c2ccc([N+](=O)[O-])cc2[N+](=O)[O-])cc1OC` (stereo not given) came in with a TGI of 98.3 µM.

Compound `S=C(N/N=C\C=N/NC(=S)N1CCCCC1)N1CCCCC1` had a TGI greater than 100 µM.

`CN1C(=O)C2C(=O)N(Cc3ccccc3)CC(=O)N2c2cccnc21` (stereo not given) yielded a TGI greater than 100 µM.

Compound `C=C1CC(COc2cc(=O)oc3ccccc23)(c2ccccc2)OC1=O` (stereo not given) displayed a TGI of 25.1 µM.

`CN(C)CCCOc1nc2c(c(=O)n(C)c(=O)n2C)n1C` (tested in a mixture with another compound) displayed a TGI greater than 100 µM.

`C[N+]1=C2[B-](C(C)(C)C)=[N+](C(C)(C)C)[B-]2(C(C)(C)C)[N+](C)=C2[B-](C(C)(C)C)=[N+](C(C)(C)C)[B-]21C(C)(C)C` (stereo not given) registered a TGI greater than 100 µM.

For the compound `Brc1ccc(CCNCCN2CCCCC2)cc1`, the TGI is 30 µM.

`Cc1ccc(C(=O)Nc2ccc(CP(=O)(O)O)cc2CP(=O)(O)O)cc1NC(=O)c1cccc(N)c1` displayed a TGI greater than 100 µM.

The compound `OC1C2[C@@H](O)CCCN2C[C@@H](O)[C@H]1O` (stereo not given in full) returned a TGI greater than 100 µM.

As to `COCOC1/C=C/CCCC#C[C@H](C)C(=O)CC1` (stereo not given in full), the TGI was determined as 21.1 µM.

As for `CN(C)/N=N/c1nc2c(c(=O)n(C)c(=O)n2C)n1C`, the TGI was greater than 100 µM.

On to `COc1ccc2[nH]c(O)c(/C=c3/cc4c(c(-c5cc(OC)c(OC)c(OC)c5)n3)=Nc3ccccc3-4)c2c1`, for which the GI50 is 8.66 µM and the TGI was greater than 100 µM.

In turn, `NCC1CCN(c2nc3ccccc3c3c2CCCC3)CC1` had a TGI of 24.9 µM.

On to `CCN(CC)CCc1c2c(nc3ccccc13)C(=O)c1cccnc1C2=O`, for which the TGI came out at 8.65 µM.

Regarding `Nc1cc(CO)cc(Nc2nc3ccc(Cl)cc3c3[nH]c4ccccc4c23)c1`, the TGI is 57.3 µM.

The compound `Cc1c(F)c(N)c2c(=O)cc(-c3ccc(NC(=O)CN(C)C)c(F)c3)oc2c1F` had a TGI greater than 100 µM.

In turn, `COc1ccccc1Nc1nc(N)nc(N)c1N=O` showed a TGI greater than 100 µM.

With `COc1cccc2c(N)c3cccc(C(=O)NCCN(C)C)c3nc12`, the TGI came out at 2.16 µM.

`CCN1CC2=C(NC(=S)NC2c2ccc(Cl)cc2)/C(=C/c2ccc(Cl)cc2)C1` (stereo not given): the TGI is greater than 100 µM.

Consider `O=C(/C=C/c1ccc(O)c([N+](=O)[O-])c1)CC(=O)/C=C/c1ccc(O)c([N+](=O)[O-])c1`, for which the TGI is greater than 100 µM.

In turn, `OCC1CCCCCCCCCCC12SCCCS2` (stereo not given) registered a TGI greater than 100 µM.

On to `O=C(O)c1cc2c(cc1CC(Cc1ccc3c(c1)CCC3)C(=O)O)CCC2` (stereo not given), for which the TGI was greater than 100 µM.

`O=C1C(Cl)=C(N2CCN(C3=C(Cl)C(=O)c4ccccc4C3=O)CC2)C(=O)c2ccccc21`: the TGI turned out to be 28.1 µM.

`Cc1c(-c2nc3ccccc3[nH]2)c(=O)n(-c2ccccc2)n1C` had a TGI greater than 100 µM.

Another assay concerns BT-549 breast. Briefly: NCI tumour cell line growth inhibition, 48 h.
Regarding `COc1ccc(C2CC(c3c(O)ccc4ccccc34)=NN2c2ccc([N+](=O)[O-])cc2[N+](=O)[O-])cc1OC` (stereo not given), the TGI is greater than 100 µM.

As for `S=C(N/N=C\C=N/NC(=S)N1CCCCC1)N1CCCCC1`, the TGI is greater than 100 µM.

Compound `CN1C(=O)C2C(=O)N(Cc3ccccc3)CC(=O)N2c2cccnc21` (stereo not given) showed a TGI greater than 100 µM.

In the case of `C=C1CC(COc2cc(=O)oc3ccccc23)(c2ccccc2)OC1=O` (stereo not given), the TGI stood at 2.97 µM.

`CN(C)CCCOc1nc2c(c(=O)n(C)c(=O)n2C)n1C` (tested in a mixture with another compound) came in with a TGI greater than 100 µM.

`C[N+]1=C2[B-](C(C)(C)C)=[N+](C(C)(C)C)[B-]2(C(C)(C)C)[N+](C)=C2[B-](C(C)(C)C)=[N+](C(C)(C)C)[B-]21C(C)(C)C` (stereo not given) registered a TGI greater than 100 µM.

Compound `Brc1ccc(CCNCCN2CCCCC2)cc1` registered a TGI of 29.4 µM.

As to `Cc1ccc(C(=O)Nc2ccc(CP(=O)(O)O)cc2CP(=O)(O)O)cc1NC(=O)c1cccc(N)c1`, the TGI was greater than 100 µM.

`OC1C2[C@@H](O)CCCN2C[C@@H](O)[C@H]1O` (stereo not given in full): the TGI was greater than 100 µM.

Take `COCOC1/C=C/CCCC#C[C@H](C)C(=O)CC1` (stereo not given in full): the TGI is 27.1 µM.

The compound `CN(C)/N=N/c1nc2c(c(=O)n(C)c(=O)n2C)n1C` yielded a TGI greater than 100 µM.

With `COc1ccc2[nH]c(O)c(/C=c3/cc4c(c(-c5cc(OC)c(OC)c(OC)c5)n3)=Nc3ccccc3-4)c2c1`, the GI50 is 5.13 µM and the TGI was 83.5 µM.

`NCC1CCN(c2nc3ccccc3c3c2CCCC3)CC1` displayed a TGI of 28 µM.

`CCN(CC)CCc1c2c(nc3ccccc13)C(=O)c1cccnc1C2=O` had a TGI of 7.56 µM.

In turn, `Nc1cc(CO)cc(Nc2nc3ccc(Cl)cc3c3[nH]c4ccccc4c23)c1` had a TGI of 24.6 µM.

In turn, `Cc1c(F)c(N)c2c(=O)cc(-c3ccc(NC(=O)CN(C)C)c(F)c3)oc2c1F` returned a TGI greater than 100 µM.

Consider `COc1ccccc1Nc1nc(N)nc(N)c1N=O`, for which the TGI is greater than 100 µM.

Take `COc1cccc2c(N)c3cccc(C(=O)NCCN(C)C)c3nc12`: the TGI was 4.95 µM.

`CCN1CC2=C(NC(=S)NC2c2ccc(Cl)cc2)/C(=C/c2ccc(Cl)cc2)C1` (stereo not given) came in with a TGI greater than 100 µM.

`O=C(/C=C/c1ccc(O)c([N+](=O)[O-])c1)CC(=O)/C=C/c1ccc(O)c([N+](=O)[O-])c1`: the TGI is greater than 100 µM.

As for `OCC1CCCCCCCCCCC12SCCCS2` (stereo not given), the TGI is greater than 100 µM.

Consider `C=C(C)C12CC(COC(=O)c3ccccc3)C34OC5(OC1C3C1OC1(CO)C(O)C1(O)C(OC(=O)c3ccccc3)C(C)C(C(C)CCCCCCC5O)C14)O2` (stereo not given), for which the TGI was greater than 100 µM.

As for `O=C(O)c1cc2c(cc1CC(Cc1ccc3c(c1)CCC3)C(=O)O)CCC2` (stereo not given), the TGI is greater than 100 µM.

Take `CC(C)=CCOC(=O)C(C)=[N+]=[N-]`: the TGI is greater than 100 µM.

With `O=C1C(Cl)=C(N2CCN(C3=C(Cl)C(=O)c4ccccc4C3=O)CC2)C(=O)c2ccccc21`, the TGI turned out to be 3.12 µM.

In the case of `Cc1c(-c2nc3ccccc3[nH]2)c(=O)n(-c2ccccc2)n1C`, the TGI was greater than 100 µM.

The test system of a further assay is COLO 205 colon. Briefly: NCI tumour cell line growth inhibition, 48 h.
Consider `COc1ccc(C2CC(c3c(O)ccc4ccccc34)=NN2c2ccc([N+](=O)[O-])cc2[N+](=O)[O-])cc1OC` (stereo not given), for which the TGI is 49 µM.

For the compound `S=C(N/N=C\C=N/NC(=S)N1CCCCC1)N1CCCCC1`, the TGI was greater than 100 µM.

Take `CN1C(=O)C2C(=O)N(Cc3ccccc3)CC(=O)N2c2cccnc21` (stereo not given): the TGI was greater than 100 µM.

`C=C1CC(COc2cc(=O)oc3ccccc23)(c2ccccc2)OC1=O` (stereo not given) registered a TGI of 3.1 µM.

Compound `CN(C)CCCOc1nc2c(c(=O)n(C)c(=O)n2C)n1C` (tested in a mixture with another compound) registered a TGI greater than 100 µM.

Compound `C[N+]1=C2[B-](C(C)(C)C)=[N+](C(C)(C)C)[B-]2(C(C)(C)C)[N+](C)=C2[B-](C(C)(C)C)=[N+](C(C)(C)C)[B-]21C(C)(C)C` (stereo not given) came in with a TGI greater than 100 µM.

Compound `Brc1ccc(CCNCCN2CCCCC2)cc1` returned a TGI of 25.6 µM.

As to `Cc1ccc(C(=O)Nc2ccc(CP(=O)(O)O)cc2CP(=O)(O)O)cc1NC(=O)c1cccc(N)c1`, the TGI is greater than 100 µM.

Regarding `OC1C2[C@@H](O)CCCN2C[C@@H](O)[C@H]1O` (stereo not given in full), the TGI was greater than 100 µM.

`COCOC1/C=C/CCCC#C[C@H](C)C(=O)CC1` (stereo not given in full) registered a TGI of 17.6 µM.

`CN(C)/N=N/c1nc2c(c(=O)n(C)c(=O)n2C)n1C` displayed a TGI greater than 100 µM.

Turning to `COc1ccc2[nH]c(O)c(/C=c3/cc4c(c(-c5cc(OC)c(OC)c(OC)c5)n3)=Nc3ccccc3-4)c2c1`, the GI50 is 3.67 µM and the TGI came out at 21.5 µM.
